Laboratory results: patent US8936793B2, “Synthetic archaeal glycolipid adjuvants” (National Research Council of Canada, priority 2006, dated 2015)

Legend:
anti-OVA antibody = assay: Anti-OVA IgG/IgM antibody titration in blood of immunized mice by ELISA; assay type: in vivo, C57BL/6 mice; conditions: for antigen-specific antibody response, FIG. 10B: gentiotriose archaeol/anionic lipid/cholesterol (35/35/30, mol %), 9 weeks
Procedure: (§1) To determine adjuvant activity, various synthetic archaeosomes with OVA entrapped (OVA-archaeosomes) were used to immunize female C57BL/6 mice on days 0 and 21 (6-8 weeks old on first injection). Injections were subcutaneous at the tail base with 0.1 ml PBS containing 15 μg OVA entrapped in 0.2-0.63 mg lipids. Blood samples were collected from the tail vein for anti-OVA IgG/IgM antibody titration done by ELISA (13). In some cases faecal extracts were assayed for IgA (and IgG) to assess mucosal responses following systemic immunizations. Fresh faeces (about 30 mg dry weight) were collected from 4 mice/group, and extracted by adding 0.5 ml of phosphate buffered saline (pH 7.0) containing 10% fetal calf serum and 0.1% sodium azide. Homogenized samples were centrifuged and Elisa measured anti OVA antibody in supernatants. Spleens were collected to determine CTL activity using the Cr^51-assay with specific and non-specific targets EG.7 and EL-4, respectively (14). In Elispot assays antigen-specific CD8^+ T cell activity was measured in splenic cells from immunized mice by determining the number of SIINFEKL stimulated IFN-γ-secreting cells per 5×10^5 splenic cells (15).

[1] = system: SIINFEKL stimulated IFN-γ-secreting cells; assay: Elispot assay of antigen-specific CD8+ T cell activity in splenic cells of immunized mice; assay type: in vivo, C57BL/6 mice; conditions: for antigen-specific CD8+ T cell response, Elispot, FIG. 10A: gentiotriose archaeol/anionic lipid/cholesterol (35/35/30, mol %), weeks 6 and 8; for CD8+ T cell adjuvant activity, Elispot, FIG. 7C: glyco-archaeol/DPPG/cholesterol (25/55/20, mol %)
Procedure: as §1, with “SIINFEKL” left out

[2] = Archaeosome formation upon hydration and stability on storage (microscopic examination, size); assay type: physicochemical; conditions: lipid hydrated alone
Source text: Presence of a relationship was explored between adjuvant activity and the mol % of the active ingredient, β-D-Glc-(1,6)-β-D-Glc-archaeol, mixed with DPPG/cholesterol. Cholesterol was maintained constant at 20 mol % with DPPG added as required to balance increasing amounts of β-D-Glc-(1,6)-β-D-Glc-archaeol. […] Hydration became more difficult at 60 mol % D-Glc-(1,6)-β-D-Glc-archaeol, and archaeosomes with 60 mol % of the synthetic glyco-archaeol increased in size during the removal of unentrapped antigen indicating instability (Table 11). […] Immunized mice developed CD8^+ T cell immune responses that were best at 15-45 mol % Glc2-archaeol content (FIG. 5).
The need for cholesterol, and the optimal mol % cholesterol needed to achieve stability of archaeosomes containing 35 mol % D-Glc-(1,6)-β-D-Glc-archaeol was explored. Cholesterol was varied in each preparation from 0, 10, 20, 30 and 45 mol %. DPPG made up the balance of each preparation. Lipids were mixed in solvent and archaeosomes were loaded with the antigen OVA as described in methods. Archaeosomes formed in all cases upon hydrating at 35° C. However, when stored at refrigeration temperatures (4-6° C.) these synthetic archaeosomes with no cholesterol were unstable, converting to amorphous lipid debris and needle shaped crystals. This instability was avoided by inclusion of 10 mol % or more cholesterol. […] The optimal cholesterol was therefore in the range of >10 to <45 mol %.
Archaeosomes/liposomes were prepared by hydrating 20-30 mg lipids at 40° C. in 2 ml of PBS buffer (10 mM sodium phosphate, 160 mM NaCl, pH 7.1) or water with (Ag-loaded) or without (Ag-free) the test antigen OVA dissolved at 10 mg/ml. In some cases, cholesterol (Sigma), DPPS, DPPE, or DPPG (Avanti Polar Lipids) polar lipids were mixed in chloroform/methanol with the synthetic glyco-archaeols. […] Quantification of antigen loading was done by SDS polyacrylamide gel electrophoresis as described and based on salt corrected dry weights (27). Average diameters were determined by particle size analysis using a 5 mW He/Ne laser (Nicomp 370).

[3] = system: antigen specific EG.7 targets; assay: CTL activity in splenocytes of immunized mice, Cr51-assay; assay type: in vivo, C57BL/6 mice; conditions: for CTL adjuvant activity, FIG. 7B: disaccharide-archaeol/DPPG/cholesterol (25/55/20, mol %), 12 weeks
Procedure: as §1

[4] = incorporation of 36 mol % into archaeosomes; Sprott et al (23); cited from earlier work
[5] = system: Listeria monocytogenes (LM)-OVA construct; assay: Protection against LM-OVA challenge after vaccination, splenic CFU; assay type: in vivo; conditions: glyco-archaeol/DPPG/chol (25/55/20, mol %), FIG. 13
Procedure: FIG. 13 illustrates protection against LM-OVA challenge after vaccination with OVA-adjuvant combinations. C57BL/6J mice were immunized on day 0 and 21 with 15 ug OVA entrapped in various synthetic archaeosomes composed of the respective synthetic glyco-archaeol/DPPG/chol (25/55/20, mol %). At 8 weeks, mice were challenged with 10^4 intravenous dose of Listeria monocytogenes (LM)-OVA construct. Mice were euthanized 3 days later. Mean±SEM of splenic colony forming units (CFU) is shown for each group.

B16OVA cells = assay: Skin melanoma solid tumor model, protection upon vaccination; assay type: in vivo, C57BL/6 mice; conditions: 5 mice/group, vaccinated s.c. with 15 μg OVA at 0 and 3 weeks, archaeal lipid/DPPG/cholesterol 25/55/20 mol %
Procedure: A skin melanoma solid tumor model was used in mice to evaluate protection achieved upon vaccination with synthetic archaeosomes. Mice were vaccinated subcutaneously with 15 μg OVA or synthetic archaeosome compositions containing 15 μg OVA at 0 and 3 weeks. Archaeosome lipid compositions were synthetic archaeal lipid/DPPG/cholesterol (25/55/20 mol %). At week 7 post first injection 5×10^6 B16OVA cells were injected subcutaneously in the shaved lower dorsal area. The time was recorded when solid tumours became evident.

CCCCCCCCCCCCCCCC(=O)OCC(COP(=O)(O)OCCN)OC(=O)CCCCCCCCCCCCCCC (stereo not drawn) [DPPE, reference compound]
antigen-specific antibody response, FIG. 10B (anti-OVA antibody): equivalent in antibody response to archaeosomes containing archaetidylglycerol | antigen-specific CD8+ T cell response, Elispot, FIG. 10A [1]: relatively low CD8^+ T cell activity | Elispot activity as % of the activity found for DPPG ([1]; gentiotriose-archaeol/anionic lipid/cholesterol (35/35/30, mol %), 6 weeks, data not shown): 27%

CC(C)CCC[C@@H](C)CCC[C@@H](C)CCC[C@@H](C)CCOC[C@H](CO[C@@H]1O[C@H](CO[C@@H]2O[C@H](CO)[C@@H](O)[C@H](O)[C@H]2O)[C@@H](O)[C@H](O)[C@H]1O)OCC[C@H](C)CCC[C@H](C)CCC[C@H](C)CCCC(C)C [Glc2-archaeol]
anti-OVA antibody response, FIG. 4B (anti-OVA antibody; 15 μg OVA s.c. 0 and 3 weeks, 6 and 11 weeks): dramatic increase | CD8+ T cell adjuvant activity, Elispot, FIG. 7C ([1]; 6 weeks): best | archaeosome formation upon hydration [2]: did not form readily | CTL response, FIG. 4A ([3]; 15 μg OVA s.c. 0 and 3 weeks, 6 weeks from first injection): dramatic increase | mol % Glc2-archaeol content at which CD8+ T cell immune responses were best ([3]; cholesterol 20 mol %, DPPG remainder, FIG. 5): 15-45 mol %

CC(C)CCC[C@@H](C)CCC[C@@H](C)CCC[C@@H](C)CCOC[C@H](CO[C@H]1O[C@H](CO)[C@@H](O)[C@H](O)[C@@H]1O)OCC[C@H](C)CCC[C@H](C)CCC[C@H](C)CCCC(C)C [Man1-C]
archaeosome formation upon hydration [2]: did not form readily

CC(C)CCCC(C)CCCC(C)CCCC(C)CCOCC(CO[C@@H]1O[C@H](CO[C@@H]2O[C@H](CO)[C@@H](O)[C@H](O)[C@H]2O)[C@@H](O)[C@H](O)[C@H]1O)OCCC(C)CCCC(C)CCCC(C)CCCC(C)C (stereo partly drawn) [DGAs, β-D-Glc-(1,6)-β-D-Glc-archaeol]
adjuvant activity [4]: striking decline in adjuvant activity

CC(C)CCC[C@@H](C)CCC[C@@H](C)CCC[C@@H](C)CCOC[C@H](CO[C@@H]1O[C@H](CO[C@H]2O[C@H](CO)[C@H](O)[C@H](O)[C@H]2O)[C@@H](O)[C@H](O)[C@H]1O)OCC[C@H](C)CCC[C@H](C)CCC[C@H](C)CCCC(C)C [melibiose-archaeol]
CTL adjuvant activity, FIG. 7B [3]: strong

CC(C)CCC[C@@H](C)CCC[C@@H](C)CCC[C@@H](C)CCOC[C@H](CO[C@H]1O[C@H](CO)[C@@H](O)[C@H](O)[C@@H]1O[C@H]1O[C@H](CO)[C@@H](O)[C@H](O)[C@@H]1O)OCC[C@H](C)CCC[C@H](C)CCC[C@H](C)CCCC(C)C [Man2-C]
archaeosome formation upon hydration [2]: did not form readily

CC(C)CCC[C@@H](C)CCC[C@@H](C)CCC[C@@H](C)CCOC[C@H](CO[C@@H]1O[C@H](CO[C@H]2O[C@H](CO)[C@@H](O)[C@H](O)[C@H]2O)[C@@H](O)[C@H](O)[C@H]1O)OCC[C@H](C)CCC[C@H](C)CCC[C@H](C)CCCC(C)C [isomaltose-A]
antibody responses, FIG. 7D (anti-OVA antibody; glyco-archaeol/DPPG/cholesterol (25/55/20, mol %), 6 weeks): quite strong | protection from LM-OVA infection [5]: less protective | CD8+ T cell adjuvant activity, Elispot, FIG. 7C ([1]; 6 weeks): lower CD8^+ T cell responses

archaetidylglycerophosphate-methyl [AGP-CH3]
antigen-specific CD8+ T cell response, Elispot, FIG. 10A [1]: Best activity

CCCCCCCCCCCCCCCC(=O)OCC(COP(=O)(O)OCC(O)CO)OC(=O)CCCCCCCCCCCCCCC (stereo not drawn) [DPPG, dipalmitoylphosphatidylglycerol, reference compound]
antigen-specific CD8+ T cell response, Elispot, FIG. 10A [1]: transient

CC(C)CCC[C@@H](C)CCC[C@@H](C)CCC[C@@H](C)CCOC[C@H](CO[C@@H]1O[C@H](CO[C@@H]2O[C@H](CO[C@@H]3O[C@H](CO)[C@@H](O)[C@H](O)[C@H]3O)[C@@H](O)[C@H](O)[C@H]2O)[C@@H](O)[C@H](O)[C@H]1O)OCC[C@H](C)CCC[C@H](C)CCC[C@H](C)CCCC(C)C [gentiotriose-A]
protection from LM-OVA infection [5]: Best protection

Sulfonoquinovosyl diacylglycerol [SQDG]
antigen-specific CD8+ T cell response, Elispot, FIG. 10A [1]: Best activity

CC(C)CCC[C@@H](C)CCC[C@@H](C)CCC[C@@H](C)CCOC[C@H](CO[C@@H]1O[C@H](CO)[C@@H](O[C@@H]2O[C@H](CO)[C@H](O)[C@H](O)[C@H]2O)[C@H](O)[C@H]1O)OCC[C@H](C)CCC[C@H](C)CCC[C@H](C)CCCC(C)C [lactose-archaeol]
CTL adjuvant activity, FIG. 7B [3]: strong

archaetidylglycerol [AG]
antigen-specific CD8+ T cell response, Elispot, FIG. 10A [1]: Best activity | CTL adjuvant activity, FIG. 3 ([3]; 15 μg OVA s.c. 0 and 3 weeks, spleens 7 weeks after first immunization): little ability to serve as adjuvants

archaetidylinositol
antigen-specific antibody response, FIG. 10B (anti-OVA antibody): favoured the antibody CD4^+ T cell response over the CD8^+ T cell response

B1: OVA (protein, UniProt P01012 2-386, looked up)
Ovalbumin: GSIGAASMEFCFDVFKELKVHHANENIFYCPIAIMSALAMVYLGAKDSTRTQINKVVRFDKLPGFGDSIEAQCGTSVNVHSSLRDILNQITKPNDVYSFSLASRLYAEERYPILPEYLQCVKELYRGGLEPINFQTAADQARELINSWVESQTNGIIRNVLQPSSVDSQTAMVLVNAIVFKGLWEKAFKDEDTQAMPFRVTEQESKPVQMMYQIGLFRVASMASEKMKILELPFASGTMSMLVLLPDEVSGLEQLESIINFEKLTEWTSSNVMEERKIKVYLPRMKMEEKYNLTSVLMAMGITDVFSSSANLSGISSAESLKISQAVHAAHAEINEAGREVVGSAEAGVDAASVSEEFRADHPFLFCIKHIATNAVLFFGRCVSP
numbers of mice that developed a solid tumor (B16OVA cells; 6 days from subcutaneous injection of B16OVA tumor cells): 2 | numbers of mice that developed a solid tumor (B16OVA cells; 9 days from subcutaneous injection of B16OVA tumor cells): 3 | numbers of mice that developed a solid tumor (B16OVA cells; 16 days from subcutaneous injection of B16OVA tumor cells): 4 | numbers of mice that developed a solid tumor (B16OVA cells; 20 days from subcutaneous injection of B16OVA tumor cells): euthanized
